Experimental findings from BindingDB's records for doi:10.1016/j.bmcl.2009.10.099 (Merck Research Laboratories, 2010) are described below.

The target of this assay is Cholesteryl ester transfer protein (Homo sapiens) (UniProt P11597). Nature of the assay: inhibition of human CETP assessed as cholesteryl ester transfer by fluorescence transfer assay.
Sequence of Cholesteryl ester transfer protein (Homo sapiens) (P11597 whole entry, looked up): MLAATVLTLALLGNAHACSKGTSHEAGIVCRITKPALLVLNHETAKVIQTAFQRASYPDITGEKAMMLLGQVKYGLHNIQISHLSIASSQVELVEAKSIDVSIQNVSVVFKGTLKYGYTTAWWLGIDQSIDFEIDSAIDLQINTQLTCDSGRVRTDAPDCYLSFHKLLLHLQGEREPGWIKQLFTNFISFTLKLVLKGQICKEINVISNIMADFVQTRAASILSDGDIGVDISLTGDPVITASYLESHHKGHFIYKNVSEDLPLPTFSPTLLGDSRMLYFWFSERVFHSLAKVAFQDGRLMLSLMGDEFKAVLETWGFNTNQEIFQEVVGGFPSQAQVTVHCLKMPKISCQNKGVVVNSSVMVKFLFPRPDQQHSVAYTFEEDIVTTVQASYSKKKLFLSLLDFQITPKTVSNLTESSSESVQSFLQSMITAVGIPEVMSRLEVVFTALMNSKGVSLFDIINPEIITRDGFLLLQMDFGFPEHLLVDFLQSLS
On to `Cc1ccccc1OCC(=O)Nc1ccc(-c2nc3cc([N+](=O)[O-])ccc3o2)cc1`, for which the IC50 (usually the concentration that gives 50% inhibition) stood at 940 nM. As for `Cc1ccc2oc(-c3ccc(NC(=O)COc4ccccc4C)cc3)nc2c1`, the IC50 amounted to 2000 nM. The figure for `Cc1ccccc1OCC(=O)Nc1ccc(-c2nc3ccc(F)cc3o2)cc1` is 7500 nM. With `Cc1ccccc1OCC(=O)Nc1ccc(-c2nc3ccc([N+](=O)[O-])cc3o2)cc1`, the IC50 was determined as 3200 nM. For `Cc1ccccc1OCC(=O)Nc1ccc(-c2nc3cc(C(C)O)ccc3o2)cc1` (configuration not stated), the IC50 stood at 3400 nM.

As to `Cc1ccccc1OCC(=O)Nc1ccc(-c2nc3cc(Br)cc(F)c3o2)cc1`, the IC50 was 910 nM.

`CC(=O)c1cc(C#N)cc2nc(-c3ccc(NC(=O)COc4ccccc4C)cc3)oc12`: the IC50 turned out to be 86 nM. The figure for `CC#CC(C)(O)c1cc(C#N)cc2nc(-c3ccc(NC(=O)COc4ccccc4C)cc3)oc12` (configuration not stated) is 160 nM; for `Cc1ccccc1OCC(=O)Nc1ccc(-c2nc3c(C)c(Br)ccc3o2)cc1` it is more than 100000 nM. With `Cc1ccccc1OCC(=O)Nc1ccc(-c2nc3cccc(Cl)c3o2)cc1` the figure was 21000 nM.

Regarding `Cc1cc2oc(-c3ccc(NC(=O)COc4ccccc4C)cc3)nc2cc1Cl`, the IC50 is more than 100000 nM. Consider `Cc1ccccc1OCC(=O)Nc1ccc(-c2nc3cc(Br)cc(C(C)(C)O)c3o2)cc1`, for which the IC50 stood at 44 nM.
